Source: the NIST ThermoML archive (doi:10.1021/je0499768)
± gives the expanded uncertainty stated by the source.

Experiment: molar heat capacity at constant pressure
Details: 101.33 kPa

CCCO [propan-1-ol]
Details	molar heat capacity at constant pressure [J/K/mol]
5.01 K, Crystal	0.17 ± 0.02
5.41 K, Crystal	0.22 ± 0.02
6.14 K, Crystal	0.29 ± 0.03
6.36 K, Crystal	0.35 ± 0.03
7.33 K, Crystal	0.52 ± 0.03
7.72 K, Crystal	0.61 ± 0.03
8.72 K, Crystal	0.9 ± 0.04
8.94 K, Crystal	0.94 ± 0.04
10.13 K, Crystal	1.44 ± 0.04
10.33 K, Crystal	1.49 ± 0.04
11.74 K, Crystal	2.19 ± 0.05
11.83 K, Crystal	2.23 ± 0.05
13.48 K, Crystal	3.15 ± 0.07
13.5 K, Crystal	3.19 ± 0.07
15.36 K, Crystal	4.38 ± 0.08
15.38 K, Crystal	4.4 ± 0.08
17.37 K, Crystal	5.81 ± 0.09
17.42 K, Crystal	5.83 ± 0.09
19.52 K, Crystal	7.46 ± 0.11
19.6 K, Crystal	7.53 ± 0.11
21.78 K, Crystal	9.32 ± 0.12
21.9 K, Crystal	9.44 ± 0.12
24.15 K, Crystal	11.43 ± 0.13
24.29 K, Crystal	11.57 ± 0.13
26.63 K, Crystal	13.58 ± 0.13
26.79 K, Crystal	13.71 ± 0.13
29.24 K, Crystal	15.59 ± 0.13
29.43 K, Crystal	15.75 ± 0.13
32.1 K, Crystal	18.09 ± 0.15
34.44 K, Crystal	20.16 ± 0.16
36.72 K, Crystal	21.88 ± 0.17
39.11 K, Crystal	23.5 ± 0.17
41.56 K, Crystal	25.36 ± 0.18
44.03 K, Crystal	27.19 ± 0.19
46.52 K, Crystal	28.98 ± 0.2
49.05 K, Crystal	30.75 ± 0.2
51.61 K, Crystal	32.44 ± 0.21
54.2 K, Crystal	34.01 ± 0.22
56.81 K, Crystal	35.59 ± 0.22
59.46 K, Crystal	37.12 ± 0.23
62.13 K, Crystal	38.64 ± 0.23
64.82 K, Crystal	40.12 ± 0.24
67.54 K, Crystal	41.54 ± 0.25
70.28 K, Crystal	42.95 ± 0.25
73.03 K, Crystal	44.31 ± 0.26
75.8 K, Crystal	45.65 ± 0.26
78.58 K, Crystal	46.95 ± 0.27
81.38 K, Crystal	48.22 ± 0.27
84.17 K, Crystal	49.46 ± 0.28
86.9 K, Crystal	50.65 ± 0.28
89.55 K, Crystal	51.79 ± 0.29
92.15 K, Crystal	52.87 ± 0.51
94.68 K, Crystal	53.91 ± 0.51
97.15 K, Crystal	54.9 ± 0.51
98.26 K, Crystal	55.24 ± 0.51
99.58 K, Crystal	55.88 ± 0.51
101.41 K, Crystal	56.44 ± 0.51
104.32 K, Crystal	57.81 ± 0.52
107.19 K, Crystal	59.01 ± 0.52
110.07 K, Crystal	60.14 ± 0.52
112.95 K, Crystal	61.2 ± 0.52
115.84 K, Crystal	62.28 ± 0.52
118.73 K, Crystal	63.39 ± 0.53
121.63 K, Crystal	64.43 ± 0.53
124.53 K, Crystal	65.69 ± 0.53
127.43 K, Crystal	66.87 ± 0.53
130.34 K, Crystal	68.07 ± 0.54
133.25 K, Crystal	69.29 ± 0.54
136.16 K, Crystal	70.53 ± 0.54
139.06 K, Crystal	71.9 ± 0.54
141.97 K, Crystal	73.6 ± 0.55
144.84 K, Crystal	79.58 ± 0.56
153 K, Liquid	106.26 ± 0.61
155.75 K, Liquid	106.33 ± 0.61
158.49 K, Liquid	106.55 ± 0.61
161.22 K, Liquid	106.79 ± 0.61
163.93 K, Liquid	107.01 ± 0.61
166.64 K, Liquid	107.32 ± 0.61
169.34 K, Liquid	107.61 ± 0.62
172.03 K, Liquid	107.88 ± 0.62
174.71 K, Liquid	108.22 ± 0.62
177.37 K, Liquid	108.49 ± 0.62
180.03 K, Liquid	108.81 ± 0.62
182.68 K, Liquid	109.05 ± 0.62
185.32 K, Liquid	109.37 ± 0.62
187.95 K, Liquid	109.64 ± 0.62
190.57 K, Liquid	109.94 ± 0.62
193.19 K, Liquid	110.41 ± 0.62
195.79 K, Liquid	110.64 ± 0.62
198.38 K, Liquid	110.93 ± 0.62
200.97 K, Liquid	111.4 ± 0.62
203.35 K, Liquid	111.76 ± 0.62
205.56 K, Liquid	112.13 ± 0.62
208.15 K, Liquid	112.54 ± 0.63
211.11 K, Liquid	113.05 ± 0.63
214.08 K, Liquid	113.58 ± 0.63
217.04 K, Liquid	114.16 ± 0.63
219.99 K, Liquid	114.78 ± 0.63
222.92 K, Liquid	115.39 ± 0.63
225.84 K, Liquid	116.05 ± 0.63
228.74 K, Liquid	116.74 ± 0.63
231.64 K, Liquid	117.43 ± 0.63
234.52 K, Liquid	118.2 ± 0.64
237.38 K, Liquid	118.92 ± 0.64
240.23 K, Liquid	119.7 ± 0.64
243.07 K, Liquid	120.56 ± 0.64
245.89 K, Liquid	121.39 ± 0.64
248.7 K, Liquid	122.27 ± 0.64
251.5 K, Liquid	123.2 ± 0.65
254.28 K, Liquid	123.87 ± 0.65
257.05 K, Liquid	124.8 ± 0.65
259.81 K, Liquid	125.83 ± 0.65
262.55 K, Liquid	126.88 ± 0.65
265.28 K, Liquid	127.98 ± 0.66
267.99 K, Liquid	129.08 ± 0.66
270.68 K, Liquid	130.22 ± 0.66
273.36 K, Liquid	131.39 ± 0.66
276.02 K, Liquid	132.62 ± 0.67
278.67 K, Liquid	133.86 ± 0.67
281.3 K, Liquid	135.13 ± 0.67
283.91 K, Liquid	136.42 ± 0.67
286.51 K, Liquid	137.76 ± 0.68
289.09 K, Liquid	139.17 ± 0.68
291.66 K, Liquid	140.59 ± 0.68
294.2 K, Liquid	141.98 ± 0.68
296.74 K, Liquid	143.51 ± 0.69
299.25 K, Liquid	144.96 ± 0.69
301.34 K, Liquid	146.08 ± 0.69
303.15 K, Liquid	147.29 ± 0.69
305.04 K, Liquid	148.45 ± 0.7
306.99 K, Liquid	149.78 ± 0.7
308.94 K, Liquid	151.07 ± 0.7
310.9 K, Liquid	152.24 ± 0.7
312.85 K, Liquid	153.55 ± 0.71
314.81 K, Liquid	155.12 ± 0.71
316.76 K, Liquid	156.37 ± 0.71
318.71 K, Liquid	157.72 ± 0.72
320.67 K, Liquid	159.16 ± 0.72
322.62 K, Liquid	160.63 ± 0.72
324.58 K, Liquid	162.08 ± 0.72
326.53 K, Liquid	163.47 ± 0.73
328.49 K, Liquid	165.03 ± 0.73
330.44 K, Liquid	166.52 ± 0.73
332.4 K, Liquid	168.01 ± 0.74
334.35 K, Liquid	169.52 ± 0.74
336.31 K, Liquid	171.04 ± 0.74
338.26 K, Liquid	172.66 ± 0.75
340.22 K, Liquid	174.2 ± 0.75
342.17 K, Liquid	175.61 ± 0.75
344.13 K, Liquid	177.2 ± 0.75
346.1 K, Liquid	178.27 ± 0.76
348.07 K, Liquid	180.29 ± 0.76
350.04 K, Liquid	181.83 ± 0.76
